Test results as given in US11987647B2, “Cyclic cell-penetrating peptides with one or more hydrophobic residues” (Ohio State Innovation Foundation, priority 2018, dated 2024).
[ ]: non-standard residue; d: D form. The star is where a group is joined. FtBu = phenylalanine with a tert-butanoyl substituent (F^tBu); 2Nal = N[C@@H](Cc1ccc2ccccc2c1)C(=O)O; Fmoc = O=C(OCC1c2ccccc2-c2ccccc21)*; Octanoyl = CCCCCCCC(=O)*; Dap = NC[C@H](N)C(=O)O; Hexanoyl = CCCCCC(=O)*

System: HeLa cells
Assay: Cytosolic entry efficiency of NF-labelled peptides by flow cytometry
Assay type: cell-based
Conditions: for Cellular Entry Efficiency In 10% FBS: 2 h, relative to CPP12 (100%); for CPP activity compared with CPP1-15 (in words): stereochemical variation of CPP1-15
Procedure: All of the peptides were labeled with naphthofluorescein (NF) at the Gln side chain through a long, flexible linker, miniPEG-Lys. HeLa cells were treated with 5 μM peptide for 2 h in the presence of 10% FBS and the cytosolic entry of the peptides was quantitated by flow cytometry analysis.
To determine cellular uptake efficiency of the CPPs disclosed herein, HeLa cells were cultured in 12-well plates (1.5×10^5 cells per well) overnight. The cells were incubated for 2 h with […] naphthofluorescein (NF)-labelled peptide in cellular media. At the end of incubation, the cells were washed with DPBS twice, detached from the plate with 0.25% trypsin, diluted into clear DMEM, pelleted at 250 g for 5 min, washed twice with DPBS, resuspended in DPBS, and analyzed on a BD FACS LSR II flow cytometer. For NF-labelled peptides, a 633-nm laser was used for excitation and the fluorescence emission was analyzed in the APC channel. Absolute cellular uptake efficiency was determined by comparing the concentration (via fluorescence intensity) of the CPP in the cytosol to the concentration in the extracellular medium. Relative cellular uptake efficiency was determined by comparing the cytosolic concentration of the CPP to that cytosolic concentration of the control CPP cyclo(FΦRRRRQ).

[1] = Table 4, 5 μM NF-labelled peptide
[2] = Table 7, 5 μM NF-labelled peptide

Row | Substance | Cellular Entry Efficiency In 10% FBS [1] | Cellular Entry Efficiency In 10% FBS [2] | CPP activity compared with CPP1-15 (in words)
1 | cyclo(Lys^DecarRrRQ) [CPP1-19] | 12% | 12% | reduced the CPP activity
2 | cyclo(Dap^OctanRRRRQ) (cyclo([Dap](Octanoyl)RRRRQ); SMILES CCCCCCCC(=O)NC[C@@H]1NC(=O)[C@H](CCC(N)=O)NC(=O)[C@H](CCCNC(=N)N)NC(=O)[C@H](CCCNC(=N)N)NC(=O)[C@H](CCCNC(=N)N)NC(=O)[C@H](CCCNC(=N)N)NC1=O) [CPP1-3] | 5.7 ± 0.6% | 5.7 ± 0.6% | –
3 | cyclo(Dap^1-PyrenebRRRRQ) (cyclo([Dap](1‑pyrenylbutanoyl)RRRRQ)) [CPP1-8] | 24 ± 1% | 24 ± 1% | –
4 | cyclo(Dap^FmocRRRRQ) (cyclo([Dap](Fmoc)RRRRQ); SMILES N=C(N)NCCC[C@@H]1NC(=O)[C@H](CCCNC(=N)N)NC(=O)[C@H](CCCNC(=N)N)NC(=O)[C@H](CNC(=O)OCC2c3ccccc3-c3ccccc32)NC(=O)[C@H](CCC(N)=O)NC(=O)[C@H](CCCNC(=N)N)NC1=O) [CPP1-7] | 17 ± 1% | 17 ± 1% | –
5 | cyclo(Lys^DecaRrRrQ) [CPP1-18] | 31% | 31% | reduced the CPP activity
6 | cyclo(Dap^HexanRRRRQ) (cyclo([Dap](Hexanoyl)RRRRQ); SMILES CCCCCC(=O)NC[C@@H]1NC(=O)[C@H](CCC(N)=O)NC(=O)[C@H](CCCNC(=N)N)NC(=O)[C@H](CCCNC(=N)N)NC(=O)[C@H](CCCNC(=N)N)NC(=O)[C@H](CCCNC(=N)N)NC1=O) [CPP1-2] | 2.9 ± 0.2% | 2.9 ± 0.2% | –
7 | cyclo(Asp^DecyrRrRQ) [CPP1-24] | 8.6% | 8.6% | –
8 | cyclo(Dap^3,3-diphenyRRRRQ) (cyclo([Dap](3,3‑diphenylpropanoyl)RRRRQ)) [CPP1-6] | 3.9 ± 0.4% | 3.9 ± 0.4% | –
9 | cyclo(Glu^DecyrRrRQ) [CPP1-25] | 34% | 34% | –
10 | cyclo(Dap^1-PyrenRRRRQ) (cyclo([Dap](1‑pyrenoyl)RRRRQ)) [CPP1-5] | 10 ± 20% | 10 ± 20% | –
11 | cyclo(Glu^DecyRrRrQ) [CPP1-23] | 1.4% | 1.4% | –
12 | cyclo(Asp^DecyRrRrQ) [CPP1-22] | 11% | 11% | –
13 | cyclo(FΦRRRRQ) (cyclo(F[2Nal]RRRRQ); SMILES N=C(N)NCCC[C@@H]1NC(=O)[C@H](CCCNC(=N)N)NC(=O)[C@H](CCCNC(=N)N)NC(=O)[C@H](Cc2ccc3ccccc3c2)NC(=O)[C@H](Cc2ccccc2)NC(=O)[C@H](CCC(N)=O)NC(=O)[C@H](CCCNC(=N)N)NC1=O) [CPP1, the first cyclic CPP discovered, reference compound] | 21% | 21% | –
14 | cyclo(F^tBuRRRRQ) (cyclo([FtBu]RRRRQ)) [CPP1-1] | 6.7 ± 0.4% | 6.7 ± 0.4% | –
